# Data as given in article PMC4764579, “Structural insights into the mechanism of activation of the TRPV1 channel by a membrane-bound tarantula toxin” (eLife, 2016).
# Positions of bridges follow the written chain, without caps; N, C: chain ends. Residues, ends and D or L forms follow the SMILES beside them.
# Molecular target: T1, rat TRPV1 (Rattus norvegicus, UniProt O35433)
# T1 construct: expressed in transfected cells; host or cells: Xenopus laevis oocytes (cRNA injection, pGEM-HE vector)
# Test: Two-electrode voltage clamp recordings of oocytes expressing TRPV1, toxin current normalised to saturating capsaicin
# Type: cell-based
# Conditions: concentration-response, see Figure 3F
# Source text: Figure 3. Validation of the proposed structural model of the TRPV1-DkTx complex. Close-up of K1 (A) and K2 (B) in the top-ranking ROSETTA model of DkTx bound to TRPV1. Side chains of TRPV1 residues where mutation disrupts DkTx-induced channel activation (I599, F649, A657 and F659) ([Bohlen et al., 2010]) are highlighted in purple. (C) Representative time courses of TRPV1 activation at +120 mV by either DkTx (left panel), K1K1 (middle panel) or K2K2 (right panel) measured from a train of voltage-ramps in the whole-cell configuration with the TRPV1 expressed in HEK cells. […] Fractional dissociation 1 min after toxin removal was quantified across cells as the current amplitude 1 min after toxin removal divided by the steady-state current amplitude in the presence of the toxin. […] Activation of the full-length TRPV1 channel by the toxin at different concentrations was measured in oocytes at a holding voltage of −60 mV. […]
# Xenopus laevis oocytes were surgically removed and gently shaken for 60 min in a solution of 82.5 mM NaCl, 2.5 mM KCl, 1 mM MgCl2, 5 mM HEPES and 2 mg/mL collagenase. […] TRPV1 activity was recorded under voltage clamp using a two-electrode voltage clamp (OC-725C; Warner Instruments) in a 150-μL recording chamber. The recorded data were filtered at 1 kHz and digitized at 5 kHz using a digidata analog/digital converter and pClamp software (Molecular Devices). […]
# T1 sequence (O35433 whole entry): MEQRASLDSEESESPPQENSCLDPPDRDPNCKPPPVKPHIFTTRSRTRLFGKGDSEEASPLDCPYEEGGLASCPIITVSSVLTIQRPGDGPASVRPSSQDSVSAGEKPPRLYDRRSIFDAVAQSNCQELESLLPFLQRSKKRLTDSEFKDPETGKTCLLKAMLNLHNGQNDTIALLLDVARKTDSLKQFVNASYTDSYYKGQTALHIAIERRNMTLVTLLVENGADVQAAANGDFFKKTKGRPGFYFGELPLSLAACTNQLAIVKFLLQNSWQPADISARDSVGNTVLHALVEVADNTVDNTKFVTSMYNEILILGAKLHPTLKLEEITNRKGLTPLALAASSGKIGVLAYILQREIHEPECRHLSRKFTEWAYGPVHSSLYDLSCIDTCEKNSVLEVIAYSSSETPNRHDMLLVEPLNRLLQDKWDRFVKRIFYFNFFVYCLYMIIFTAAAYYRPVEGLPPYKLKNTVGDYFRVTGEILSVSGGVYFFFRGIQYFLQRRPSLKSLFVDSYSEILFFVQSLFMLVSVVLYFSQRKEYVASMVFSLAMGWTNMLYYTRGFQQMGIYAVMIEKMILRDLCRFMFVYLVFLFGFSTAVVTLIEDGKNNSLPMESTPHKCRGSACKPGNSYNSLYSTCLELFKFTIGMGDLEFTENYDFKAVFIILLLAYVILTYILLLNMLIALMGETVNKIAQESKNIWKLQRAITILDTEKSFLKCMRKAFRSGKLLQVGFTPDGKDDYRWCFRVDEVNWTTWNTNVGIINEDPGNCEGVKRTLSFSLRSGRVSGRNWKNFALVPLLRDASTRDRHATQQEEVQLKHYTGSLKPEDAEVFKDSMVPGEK
structure (smiles),measurement,value
"CC[C@H](C)[C@@H]1NC(=O)[C@H](Cc2ccccc2)NC(=O)[C@H](C)NC(=O)[C@H](CC(C)C)NC(=O)[C@@H]2CCCN2C(=O)[C@@H]2CSSC[C@@H]3NC(=O)[C@H](C(C)C)NC(=O)[C@H](CCC(=O)O)NC(=O)CNC(=O)[C@H](CCC(=O)O)NC(=O)[C@H](CCCCN)NC(=O)[C@H](C)NC(=O)[C@@H](NC(=O)[C@@H](N)CC(N)=O)CSSC[C@H](NC(=O)[C@H](CSSC[C@@H](C(=O)N[C@@H](CCC(=O)O)C(=O)N[C@@H](CCCCN)C(=O)N[C@@H](Cc4ccc(O)cc4)C(=O)N[C@@H](CCCNC(=N)N)C(=O)O)NC(=O)[C@H](Cc4ccc(O)cc4)NC(=O)[C@@H]4CCCN4C1=O)NC(=O)[C@H](CCCCN)NC(=O)[C@H](CO)NC(=O)CNC(=O)[C@H](Cc1c[nH]c4ccccc14)NC(=O)CNC3=O)C(=O)N[C@@H](Cc1c[nH]cn1)C(=O)NCC(=O)N[C@@H](CC(C)C)C(=O)N[C@@H](CC(=O)O)C(=O)N2 [K2] (H-NCAKEGEVCGWGSKCCHGLDCPLAFIPYCEKYR-OH; disulfide 2-16, 9-21, 15-29 (inferred); N-terminus and C-terminus assumed)",concentration range where activation of TRPV1 saturates (in words),low micromolar range
